# Reference: patent US20240139211A1, “METHODS AND COMPOSITIONS FOR TREATING AMYOTROPHIC LATERAL SCLEROSIS” (Amylyx Pharmaceuticals, Inc., priority 2022, published 2024)
# Where “and” joins values, the source holds several entries; their conditions need not be identical. Identical values can stand only once.
# Columns and labels:
# [1] = Solubility assessment in HBSSg_7.4 and HBSSg_8.5; conditions: replicates 1-3
# [2] = Rat drug-drug interaction study TDF + AMX0035: urine recovery; format: in vivo; conditions: male, Sprague-Dawley, rat, in vivo
# Procedure: Total urine recovery data for Tenofovir, TDF, and PB was calculated for the 24 hour collection period on Days 1 and 5. […] The reported urine recovery data included amount recovered (ng) and percent recovered (%) for […]. Individual and mean Tenofovir, TDF, and PB urine recovery data were presented with SD, reported to three significant figures, and CV %, reported to one decimal place.
# [3] = biological target: T1, CYPs in human liver microsomes (HLM) (Homo sapiens, UniProt P05177); assay: CYP reaction phenotyping in HLM with chemical inhibitors (% remaining); conditions: +NADPH +furafylline (CYP1A2), pre-incubated
# T1 sequence (P05177 1-516): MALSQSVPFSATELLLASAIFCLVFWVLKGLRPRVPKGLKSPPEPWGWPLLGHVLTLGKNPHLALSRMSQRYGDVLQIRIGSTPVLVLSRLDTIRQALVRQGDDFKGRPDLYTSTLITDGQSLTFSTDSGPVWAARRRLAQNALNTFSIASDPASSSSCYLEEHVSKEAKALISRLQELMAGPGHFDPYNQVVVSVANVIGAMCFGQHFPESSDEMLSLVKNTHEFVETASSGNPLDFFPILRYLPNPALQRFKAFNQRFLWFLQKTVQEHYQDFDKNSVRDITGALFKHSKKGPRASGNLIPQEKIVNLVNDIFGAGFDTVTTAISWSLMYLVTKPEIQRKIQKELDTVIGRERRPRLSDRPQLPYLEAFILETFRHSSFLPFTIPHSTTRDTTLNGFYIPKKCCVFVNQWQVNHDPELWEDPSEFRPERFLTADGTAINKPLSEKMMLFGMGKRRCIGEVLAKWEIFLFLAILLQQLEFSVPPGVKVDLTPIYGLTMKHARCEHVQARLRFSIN
# [4] = test system: CYPs in human liver microsomes (HLM); assay: as above
# [5] = biological target: CYPs in human liver microsomes (HLM) (Homo sapiens, UniProt P33261); assay: as above; conditions: +NADPH +N3B (CYP2C19)
# Sequence of CYPs in human liver microsomes (HLM) (Homo sapiens, UniProt P33261) (P33261 whole entry): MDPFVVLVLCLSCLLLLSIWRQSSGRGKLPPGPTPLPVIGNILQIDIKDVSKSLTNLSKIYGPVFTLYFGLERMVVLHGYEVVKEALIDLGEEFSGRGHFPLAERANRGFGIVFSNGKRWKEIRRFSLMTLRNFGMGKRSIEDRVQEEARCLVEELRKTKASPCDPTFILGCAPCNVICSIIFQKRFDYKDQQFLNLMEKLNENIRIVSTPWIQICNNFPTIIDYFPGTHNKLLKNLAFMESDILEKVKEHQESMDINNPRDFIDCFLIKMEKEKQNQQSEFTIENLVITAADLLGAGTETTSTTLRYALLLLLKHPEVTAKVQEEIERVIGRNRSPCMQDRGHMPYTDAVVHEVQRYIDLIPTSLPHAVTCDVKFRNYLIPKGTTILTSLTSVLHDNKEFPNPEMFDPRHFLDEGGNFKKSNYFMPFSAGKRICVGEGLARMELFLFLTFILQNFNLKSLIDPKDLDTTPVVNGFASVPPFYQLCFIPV
# [6] = Rat drug-drug interaction study TDF + AMX0035: plasma pharmacokinetics; conditions: Day 5, AMX0035 + TDF 840/25 mg/kg oral, male Sprague Dawley rats; individual animals; BLQ = <50 ng/mL
# [7] = biological target: T2, hrCYP2B6 (Homo sapiens, UniProt P20813); assay: CYP reaction phenotyping with hrCYP2B6 (% remaining); format: in vitro ADME; conditions: human, 1 h, 5 µM, pH 7.4
# T2 sequence (P20813 1-491): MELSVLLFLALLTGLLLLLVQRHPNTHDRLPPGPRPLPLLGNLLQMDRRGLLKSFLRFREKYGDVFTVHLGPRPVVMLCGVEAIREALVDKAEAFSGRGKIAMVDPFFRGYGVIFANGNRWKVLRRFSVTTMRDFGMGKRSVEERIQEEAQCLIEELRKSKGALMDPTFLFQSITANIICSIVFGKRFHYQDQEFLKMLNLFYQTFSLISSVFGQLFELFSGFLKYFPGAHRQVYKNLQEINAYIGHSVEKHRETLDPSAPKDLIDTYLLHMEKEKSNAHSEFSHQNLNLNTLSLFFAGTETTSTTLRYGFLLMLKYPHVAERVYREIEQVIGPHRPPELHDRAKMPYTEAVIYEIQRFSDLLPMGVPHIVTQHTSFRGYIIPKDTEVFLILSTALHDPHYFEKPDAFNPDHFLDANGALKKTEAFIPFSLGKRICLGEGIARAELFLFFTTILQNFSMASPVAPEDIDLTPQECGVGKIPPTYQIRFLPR
# [8] = HBSSg_7.4, target 8005 μM TUDCA, 64447 μM PB
# [9] = HBSSg_8.5, target 810 μM TUDCA, 73927 μM PB
smiles,measurement,setting,value
"O=C(O)CCCc1ccccc1 [PB, sodium phenylbutyrate]",Measured Concentration,[1]; [8],52000 µM and 59300 µM and 52800 µM
same,Percent of the Nominal Concentration,[1]; [8],80.7% and 92.0% and 81.9%
same,Measured Concentration,[1]; [9],62200 µM and 53200 µM and 61100 µM
same,Percent of the Nominal Concentration,[1]; [9],84.1% and 72.0% and 82.6%
same,Urine concentrations,[2],"Urine concentrations for PB analysis in all animals on Day 1, for TUDCA analysis in all animals on Days 1 and 5, and for TDF analysis in two animals on Day 1 and one animal on Day 5 were BLQ (<20 mg/mL) so no recovery data was calculated."
same,% remaining of TA in HLM,[3]; 5 min,116%
same,% remaining of TA in HLM,[3]; 10 min,131%
same,% remaining of TA in HLM,[3]; 20 min,125%
same,% remaining of TA in HLM,[3]; 30 min,127%
same,% remaining of TA in HLM,[3]; 60 min,128%
same,Metabolism by the major CYPs in HLM,[4],neither PB nor TUDCA is metabolized
same,% remaining of TA in HLM,"[4]; +NADPH +ketoconazole (CYP3A), 60 min",90.6%
same,% remaining of TA in HLM,"[4]; Maximum Metabolism-1: +NADPH −inhibitor, pre-incubated, 10 min",118%
same,% remaining of TA in HLM,"[4]; Maximum Metabolism-1: +NADPH −inhibitor, pre-incubated, 20 min",113%
same,% remaining of TA in HLM,"[4]; Maximum Metabolism-1: +NADPH −inhibitor, pre-incubated, 30 min",110%
same,% remaining of TA in HLM,"[4]; Negative Control-1: −NADPH −inhibitor, pre-incubated, 5 min",109%
same,% remaining of TA in HLM,"[4]; Negative Control-1: −NADPH −inhibitor, pre-incubated, 10 min",114%
same,% remaining of TA in HLM,"[4]; Negative Control-1: −NADPH −inhibitor, pre-incubated, 20 min",113%
same,% remaining of TA in HLM,"[4]; Negative Control-1: −NADPH −inhibitor, pre-incubated, 30 min",112%
same,% remaining of TA in HLM,"[4]; Negative Control-1: −NADPH −inhibitor, pre-incubated, 60 min",115%
same,% remaining of TA in HLM,[5]; 5 min,101%
same,% remaining of TA in HLM,[5]; 20 min,101%
same,% remaining of TA in HLM,[5]; 30 min,101%
same,% remaining of TA in HLM,[5]; 60 min,101%
same,Plasma Concentration of analyte at 8.0 hr,[6],102 ng/mL
same,% remaining after 60 minutes,[7],greater than 90%
